# Experimental data reported in US20070105924A1 (priority 2005, published 2007).
# Assays:
# [1] = molecular target: T1, GABA-AT (Sus scrofa, UniProt P80147); test: Time-independent inhibition of GABA-AT; type: biochemical, pig; details: 1-10 mM inhibitor, 25° C., read-out: estimated IC50
# Text: The percentage of remained enzyme activity was obtained by comparison to that of an untreated enzyme control. The logarithm of the percentage of remained activity is plotted versus the concentration of the inhibitors to calculate IC50 values.
# [2] = molecular target: T1, GABA-AT; test: Time-dependent inhibition of GABA-AT (Kitz and Wilson replot); type: biochemical, pig; details: for time-dependent inhibition of GABA-AT (in words): 9 and 10 compared with 8 at the same concentration
# Experimental: Aliquots (20 μL) were withdrawn at timed intervals and were added immediately to the assay solution (575 μL) followed by the addition of excess SSDH (5 μL). The reaction rates were measured by a UV-vis spectrophotometer at 340 nm. […] A Kitz and Wilson replot was used to determine the kinetic constants kinact and KI, as referenced above.
# [3] = molecular target: T1, GABA-AT; test: Preliminary substrate activity test with [14C]-labeled α-ketoglutarate; type: biochemical, pig; details: for Converted α-KG: incubation time 48 h, GABA-AT 0.7 μM, substrate 2.5 mM, α-KG 2.9 mM; for substrate activity for GABA-AT (in words): preliminary test, 48 h incubation
# Text: Tetrazole derivative 5 was the most efficient of the synthesized substrates. The tetrazole group was the best bioisostere for the carboxylic acid group in this series of compounds tested.
# [4] = isosteric functionality compared with a carboxylic group; cited from earlier work
# [5] = time-dependent inhibition, 25 ° C., pH 8.5
# T1 sequence (P80147 29-500): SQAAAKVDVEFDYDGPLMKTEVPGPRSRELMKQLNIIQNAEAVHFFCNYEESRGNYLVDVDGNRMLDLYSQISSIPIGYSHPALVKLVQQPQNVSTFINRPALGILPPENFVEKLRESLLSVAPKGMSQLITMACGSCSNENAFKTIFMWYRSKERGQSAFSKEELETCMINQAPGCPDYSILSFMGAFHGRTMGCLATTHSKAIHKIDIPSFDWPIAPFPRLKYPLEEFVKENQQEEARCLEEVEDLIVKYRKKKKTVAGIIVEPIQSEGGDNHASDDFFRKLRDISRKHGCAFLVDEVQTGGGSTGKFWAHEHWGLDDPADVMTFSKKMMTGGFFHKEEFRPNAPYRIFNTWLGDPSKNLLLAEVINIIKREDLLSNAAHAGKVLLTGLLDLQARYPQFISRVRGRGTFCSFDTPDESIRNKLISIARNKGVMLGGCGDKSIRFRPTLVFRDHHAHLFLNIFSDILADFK
Structure (SMILES),time-dependent inhibition of GABA-AT (in words) [2],Converted α-KG [3] [%],substrate activity for GABA-AT (in words) [3],other results
"C=CC(N)CCc1nnn(C)n1 (stereo not drawn) [Compound 9, 2-Methyl-2H-tetrazole-5-(α-vinyl-propanamine)]",Neither 9 nor 10 showed time-dependent inhibition,,,IC50 [1]: > 10 mM
"NCc1ccc2[nH]ccc2c1 [Compound 4, Indole-5-methanamine]",,0.1,little or no substrate activity,
"COC(=O)NC(=O)CCN [Compound 2, Methyl β-alanylcarbamate]",,1.3,substrates for GABA-AT,pKa [4]: ~8
"C=CC(N)CCc1nnnn1C (stereo not drawn) [Compound 10, 1-methyl-1H-tetrazole-5-(α-vinyl-propanamine)]",Neither 9 nor 10 showed time-dependent inhibition,,,IC50 [1]: > 10 mM
"NCCCC(=O)O [GABA, γ-aminobutyric acid, reference compound]",,25,,
"C=CC(N)CCc1nnn[nH]1 (stereo not drawn) [Compound 8, 1H-Tetrzole-5-(α-vinyl-propanamine)]",showed time-dependent inhibition,,,"times less efficient (kinact/KI) than vigabatrin ([2]; relative to racemic vigabatrin): 6.6 times; kinact/KI ([2]; time-dependent inhibition): 2.17 M⁻¹ s⁻¹; Ki [2, 5]: 5.6 mM; kinact [2, 5]: 0.0122 s⁻¹"
"NCCc1nnn[nH]1 [Compound 5, 1H-Tetrazole-5-ethanamine]",,20,substrates for GABA-AT,
"CS(=O)(=O)NC(=O)CCN [Compound 3, Methyl b-alanylsulfonamide]",,6.4,substrates for GABA-AT,pKa [4]: comparable to that of a carboxylic acid
